Values joined by “and” are separate entries in the source; they are usually repeats but may differ in a detail not shown here. Equal values may be shown once.
Test system: sunflower genotypes carrying the A122T mutation event
Assay: Greenhouse whole-plant imazapir dose response (Example 8), group mean
Format: in vivo, Helianthus annuus
Settings: 14 DAT; for biomass, Dif with control (reduction), A122T / plant height, Dif with Control (height reduction), A122T / root dry weight, Dif with control (reduction), A122T: A122T mean; for biomass accumulation (% of untreated), Mean A122T / plant height (% of untreated), Mean A122T / root dry weight (% of untreated), Mean A122T: mean of six A122T genotypes; for Phytotoxicity Index, Mean A122T: mean of three A122T genotypes
Procedure: A greenhouse study was conducted to quantify and contrast the imazapir sensitivity of the mutants A122T and A205V in different genetic backgrounds at the whole plant level in sunflower. Seeds of the different sunflower lines that were used in this study were obtained under field conditions.
Seeds were sown in Petri dishes and, after germination, plantlets were transplanted to pots of 10 cm of diameter in a potting media consisting of equal parts of vermiculite, soil and sand. Plants were grown in a greenhouse under natural light conditions supplemented with 400 W sodium halide lamps to provide a 16 hrs daylength. Day/night temperatures were 25 and 20° C., respectively. At the V2 stage 10 plants of each genotype were randomly assigned to each treatment consisting of […] imazapir doses (0, 40, 80, 160, 240, 320, 400 and 480 g ai/ha), and a zero-time biomass determination. Experiment was arranged as a randomized block design with a full factorial (sunflower line×treatment) arrangement of treatments and 10 replications.
On the day of herbicide application ten plants of each genotype were cut at the cotyledonal node and dried at 60° C. for 48 hrs zero-time for dried weight determination. […] Height was determined as the distance between the cotyledonal node and the apex of each plant. For root biomass determination, each plant was taken from the pot and the potting media was washed out from the roots. Above ground biomass data from each line were converted to biomass accumulation after application by subtracting the appropriate average zero-time biomass from each sample. Dry biomass data were converted to percentages of the untreated control plants within each line to allow direct comparisons between groups.

## CC(C)C1(C)N=C(c2ncccc2C(=O)O)NC1=O (stereo not shown) [imazapir, imazapyr]
0.5× (40 g ai/ha)
  biomass, Dif with control (reduction), A122T: 1.1%
  plant height, Dif with Control (height reduction), A122T: 0.6%
  root dry weight, Dif with control (reduction), A122T: 0.1%
  biomass accumulation (% of untreated), Mean A122T: 98.9%
  plant height (% of untreated), Mean A122T: 99.4%
  root dry weight (% of untreated), Mean A122T: 99.9%
  Phytotoxicity Index, Mean A122T: 0.3
1× (80 g ai/ha)
  biomass, Dif with control (reduction), A122T: 3.2%
  plant height, Dif with Control (height reduction), A122T: 1.4%
  root dry weight, Dif with control (reduction), A122T: 2.5%
  biomass accumulation (% of untreated), Mean A122T: 96.8%
  plant height (% of untreated), Mean A122T: 98.6%
  root dry weight (% of untreated), Mean A122T: 97.5%
  Phytotoxicity Index, Mean A122T: 0.3
2× (160 g ai/ha)
  biomass, Dif with control (reduction), A122T: 5.1%
  plant height, Dif with Control (height reduction), A122T: 2.7%
  root dry weight, Dif with control (reduction), A122T: 5.9%
  biomass accumulation (% of untreated), Mean A122T: 94.9%
  plant height (% of untreated), Mean A122T: 97.3%
  root dry weight (% of untreated), Mean A122T: 94.1%
  Phytotoxicity Index, Mean A122T: 0.3
3× (240 g ai/ha)
  biomass, Dif with control (reduction), A122T: 7.2%
  plant height, Dif with Control (height reduction), A122T: 4.4%
  root dry weight, Dif with control (reduction), A122T: 10.6%
  biomass accumulation (% of untreated), Mean A122T: 92.8%
  plant height (% of untreated), Mean A122T: 95.6%
  root dry weight (% of untreated), Mean A122T: 89.4%
  Phytotoxicity Index, Mean A122T: 0.3
4× (320 g ai/ha)
  biomass, Dif with control (reduction), A122T: 12.2%
  plant height, Dif with Control (height reduction), A122T: 6.3%
  root dry weight, Dif with control (reduction), A122T: 18.6%
  biomass accumulation (% of untreated), Mean A122T: 87.8%
  plant height (% of untreated), Mean A122T: 93.7%
  root dry weight (% of untreated), Mean A122T: 81.4%
  Phytotoxicity Index, Mean A122T: 0.5
5× (400 g ai/ha)
  biomass, Dif with control (reduction), A122T: 20.7%
  plant height, Dif with Control (height reduction), A122T: 10.2%
  root dry weight, Dif with control (reduction), A122T: 21.3%
  biomass accumulation (% of untreated), Mean A122T: 79.3%
  plant height (% of untreated), Mean A122T: 89.8%
  root dry weight (% of untreated), Mean A122T: 78.7%
  Phytotoxicity Index, Mean A122T: 0.8
6× (480 g ai/ha)
  biomass, Dif with control (reduction), A122T: 25% and 25.4%
  plant height, Dif with Control (height reduction), A122T: 15.8%
  root dry weight, Dif with control (reduction), A122T: 38.3%
  biomass accumulation (% of untreated), Mean A122T: 74.6%
  plant height (% of untreated), Mean A122T: 84.2%
  root dry weight (% of untreated), Mean A122T: 61.7%
  Phytotoxicity Index, Mean A122T: 1.2

Reference: patent publication US20150176022A1, “HERBICIDE-RESISTANT SUNFLOWER PLANTS, POLYNUCLEOTIDES ENCODING HERBICIDE=RESISTANT ACETO HYDROXY ACID SYNTHASE LARGE SUBUNIT PROTEINS, AND METHODS OF USE” (priority 2013, published 2015)
